Series [1] has as its system Salmonella Typhimurium TA 100. In words: Ames test for mutagenicity (plate assay, colony count). To be noted: 48 hours at 37° C.; for Ames test (+)S9 0.1 mg/pl. / Ames test (+)S9 1 mg/pl. / Ames test (+)S9 10 mg/pl.: (+)S9 mix; for Ames test (−)S9 0.1 mg/pl. / Ames test (−)S9 1 mg/pl. / Ames test (−)S9 10 mg/pl.: (−)S9 mix.
In a further series the test system is rats. In words: Toxicology: organs sectioned and examined after dosing. To be noted: two animals examined, findings per animal. It is filed as in vivo. The procedure: In at least two of the animals in each group, the pancreas, right kidney and part of the liver, heart, spleen, and lung were removed and evaluated for toxic effects.
The toxicology of animals receiving some of the compounds of the present invention IP and/or oral was examined. At the time of sacrifice samples of liver, pancreas, heart, lung, spleen and kidney were removed, visually inspected, and immersion fixed in Bouin's solution for a minimum of 48 hours. All organs were then sectioned and examined for evidence of necrosis, inflammation, hemorrhage, and possible tumors. The major veins in each tissue were also examined for distention, especially in the liver and pancreas, and any other abnormalities are compared to known histopathological states. In addition to the above, the heart was examined for evidence of fibrosis in the muscular walls, and to compare the thickness of the ventricular walls. The pancreas was examined mainly for calcium deposits, while the lung was checked for signs of any exudates or hemorrhage, especially in the alveolar spaces. Finally, the kidney was examined mainly for microscopic hemorrhages, tubular necrosis or alterations in the glomeruli in the cortex.
In this example, the effects of RC-MC-30 were compared with those of lonidamine in sexually mature rats. As discussed above, each of the rats (8 total) received a single injection and were sacrificed five days after injection and examined.

The subject of the next series is Male Long Evans rats. The series can be described thus: In vivo antispermatogenic testing in Long Evans rats. To be noted: for Mortality (25 mg/kg) / Response 25 mg/kg: 25 mg/kg single i.p. injection; for Response 25 mg/kg / Response 200 mg/kg: animals responding out of animals surviving, five days following injection; for Mortality (200 mg/kg) / Response 200 mg/kg: 200 mg/kg single i.p. injection.

Entries after “also recorded” stand apart in the source; their conditions may differ.

As for `COC(=O)c1nn(Cc2ccc(Cl)cc2Cl)c2cccnc12` [JWS-1-110], in series [1], the “Ames test (+)S9 0.1 mg/pl.” value is listed as “Pass”, the “Ames test (+)S9 1 mg/pl.” value was “Pass”, the “Ames test (+)S9 10 mg/pl.” value is listed as “Pass” and the “Ames test (−)S9 0.1 mg/pl.” value was “Pass”. In series [1], the “Ames test (−)S9 1 mg/pl.” value is “Pass” and the “Ames test (−)S9 10 mg/pl.” value is recorded as “Pass”. Further, the “Toxicology: liver, lung, pancreas, spleen, heart and kidney (histology)” value (from here on “Toxicology: liver, lung, pancreas”) in the series on rats (25 mg/kg) was “The spleen had distended veins and necrosis in the white pulp; also recorded: The liver had distended portal veins with surrounding small patches of hepatic necrosis; also recorded: The lung contained scattered hemorrhagic areas around the alveoli and terminal bronchioles; also recorded: the spleen had distended veins and diminished amounts of white pulp containing necrotic cells”. Moreover, the “Toxicology: liver, lung, pancreas” value with rats (200 mg/kg) is “The liver showed distended portal veins with scattered, small patches of necrosis; also recorded: The lung contained multiple hemorrhagic areas throughout the alveoli, and terminal and respiratory bronchioles; also recorded: the spleen demonstrated distended veins, and diminished white pulp with necrotic cells; also recorded: The liver had distended veins, with scattered, small patches of necrosis throughout; also recorded: The pancreas had distended veins, but no other noticeable abnormalities”. For the same compound, in the series on Male Long Evans rats, the “Mortality (25 mg/kg)” value was 0/5, the “Response 25 mg/kg” value is listed as 0/5, the “Mortality (200 mg/kg)” value is reported as 0/5 and the “Response 200 mg/kg” value is recorded as 0/5.

For the compound `O=C(O)c1nn(Cc2ccc(Cl)cc2Cl)c2cccnc12` [JWS-1-114, 1-(2,4-dichlorobenzyl)-1H-pyrazolo[4,3-b]pyridine-3-carboxylic acid], in series [1], the “Ames test (+)S9 0.1 mg/pl.” value is on record as “Pass”, the “Ames test (+)S9 1 mg/pl.” value is “Pass”, the “Ames test (+)S9 10 mg/pl.” value is “Pass” and the “Ames test (−)S9 0.1 mg/pl.” value is “Pass”. Besides, in series [1], the “Ames test (−)S9 1 mg/pl.” value is listed as “Pass” and the “Ames test (−)S9 10 mg/pl.” value is reported as “Pass”. Moreover, the “Toxicology: liver, lung, pancreas” value in the series with rats (25 mg/kg) was “liver, lung, pancreas, spleen, heart and kidney that appeared within normal limits”. Further, the “Toxicology: liver, lung, pancreas” value in the series on rats (200 mg/kg) is “The lung had massive pulmonary hemorrhaging around the bronchioles; also recorded: The liver had moderate sized (5-10 cell in diameter) necrotic patches generally in the periportal areas; also recorded: liver, lung, pancreas, spleen, heart and kidney that appeared within normal limits”. Besides, in the series on Male Long Evans rats, the “Mortality (25 mg/kg)” value is reported as 0/5, the “Response 25 mg/kg” value is reported as 1/5, the “Mortality (200 mg/kg)” value is given as 0/5 and the “Response 200 mg/kg” value is reported as 0/5.

Turning to `COC(=O)c1nn(Cc2ccc(Cl)cc2Cl)c2cnccc12` [JWS-1-130, 1-(2,4-dichlorobenzyl)-1H-pyrazolo[3,4-c]pyridine-3-carboxylic acid methyl ester], in series [1], the “Ames test (+)S9 0.1 mg/pl.” value is reported as “Pass”, the “Ames test (+)S9 1 mg/pl.” value is on record as “Pass”, the “Ames test (+)S9 10 mg/pl.” value was “Pass” and the “Ames test (−)S9 0.1 mg/pl.” value is reported as “Pass”. In series [1], the “Ames test (−)S9 1 mg/pl.” value was “Pass” and the “Ames test (−)S9 10 mg/pl.” value was “Pass”. Moreover, the “Toxicology: liver, lung, pancreas” value with rats (25 mg/kg) is given as “The liver appeared to have distended veins throughout, but no other abnormalities were noted; also recorded: The liver did have distended veins throughout, with small scattered patches of necrosis, usually located around the periportal areas”. Moreover, the “Toxicology: liver, lung, pancreas” value in the series on rats (200 mg/kg) is “liver, lung, pancreas, spleen, heart and kidney all appeared within normal limits; also recorded: The liver did have distended veins throughout, with small scattered patches of necrosis, usually located around the periportal areas”. Moreover, in the series on Male Long Evans rats, the “Mortality (25 mg/kg)” value is 0/5, the “Response 25 mg/kg” value was 0/5, the “Mortality (200 mg/kg)” value was 0/5 and the “Response 200 mg/kg” value is 0/5.

For `COC(=O)c1nn(Cc2ccc(Cl)cc2Cl)c2ccc(OC)nc12` [JWS-1-142, 1-(2,4-dichlorobenzyl)-5-methoxy-1H-pyrazolo[4,3-b]pyridine-3-carboxylic acid methyl ester], in series [1], the “Ames test (+)S9 0.1 mg/pl.” value is recorded as “Pass”, the “Ames test (+)S9 1 mg/pl.” value was “Pass”, the “Ames test (+)S9 10 mg/pl.” value was “Pass” and the “Ames test (−)S9 0.1 mg/pl.” value is reported as “Pass”. Further, in series [1], the “Ames test (−)S9 1 mg/pl.” value is “Pass” and the “Ames test (−)S9 10 mg/pl.” value is “Pass”. The “Toxicology: liver, lung, pancreas” value in the series on rats (25 mg/kg) was “liver, lung, pancreas, spleen, heart and kidney all appeared within normal limits”. Also, the “Toxicology: liver, lung, pancreas” value with rats (200 mg/kg) was “The liver contained a small, confined cluster of lymphocytes in the parenchyma; also recorded: liver, lung, pancreas, spleen, heart and kidney all appeared within normal limits”. For the same compound, in the series on Male Long Evans rats, the “Mortality (25 mg/kg)” value is 0/5, the “Response 25 mg/kg” value is given as 0/5, the “Mortality (200 mg/kg)” value was 0/5 and the “Response 200 mg/kg” value was 0/5.

For `COc1ccc2c(n1)c(C(=O)O)nn2Cc1ccc(Cl)cc1Cl` [JWS-1-144, 1-(2,4-dichlorobenzyl)-5-methoxy-1H-pyrazolo[4,3-b]pyridine-3-carboxylic acid], in series [1], the “Ames test (+)S9 0.1 mg/pl.” value was “Pass”, the “Ames test (+)S9 1 mg/pl.” value is “Pass”, the “Ames test (+)S9 10 mg/pl.” value is “Pass” and the “Ames test (−)S9 0.1 mg/pl.” value is recorded as “Pass”. Besides, in series [1], the “Ames test (−)S9 1 mg/pl.” value is reported as “Pass” and the “Ames test (−)S9 10 mg/pl.” value is “Pass”. For the same compound, the “Toxicology: liver, lung, pancreas” value with rats (25 mg/kg) is “liver, lung, pancreas, spleen, heart and kidney that appeared within normal limits”. Moreover, in the series on Male Long Evans rats, the “Mortality (25 mg/kg)” value is recorded as 0/5 and the “Response 25 mg/kg” value is given as 0/5.

Turning to `COc1ccc2c(n1)c(C(=O)NN)nn2Cc1ccc(Cl)cc1Cl` [JWS-1-146, 1-(2,4-dichlorobenzyl)-5-methoxy-1H-pyrazolo[4,3-b]pyridine-3-carboxylic acid hydrazide], in series [1], the “Ames test (+)S9 0.1 mg/pl.” value is “Pass”, the “Ames test (+)S9 1 mg/pl.” value is recorded as “Pass”, the “Ames test (+)S9 10 mg/pl.” value is on record as “Pass” and the “Ames test (−)S9 0.1 mg/pl.” value was “Pass”. For the same compound, in series [1], the “Ames test (−)S9 1 mg/pl.” value is given as “Pass” and the “Ames test (−)S9 10 mg/pl.” value was “Pass”. For the same compound, the “Toxicology: liver, lung, pancreas” value with rats (25 mg/kg) was “liver, lung, pancreas, spleen, heart and kidney that appeared within normal limits”. For the same compound, in the series with Male Long Evans rats, the “Mortality (25 mg/kg)” value was 0/5 and the “Response 25 mg/kg” value is 0/5.

For `COC(=O)c1nn(Cc2ccc(Cl)cc2Cl)c2cc(F)ccc12` [JWS-1-158, 1-(2,4-dichlorobenzyl)-6-fluoro-1H-indazole-3-carboxylic acid methyl ester], in series [1], the “Ames test (+)S9 0.1 mg/pl.” value is on record as “Pass”, the “Ames test (+)S9 1 mg/pl.” value was “Pass”, the “Ames test (+)S9 10 mg/pl.” value is “Pass” and the “Ames test (−)S9 0.1 mg/pl.” value is “Pass”. For the same compound, in series [1], the “Ames test (−)S9 1 mg/pl.” value is given as “Pass” and the “Ames test (−)S9 10 mg/pl.” value is listed as “Pass”. In the series with rats (25 mg/kg, listed as JSW-1-158), the “Toxicology: liver, lung, pancreas” value was “liver, lung, pancreas, spleen, heart and kidney all appeared within normal limits; also recorded: The lung had thickening of the alveolar and bronchiole walls, and scattered areas of moderate sized hemorrhaging covering several adjacent alveoli”. Moreover, in the series on rats (200 mg/kg, listed as JSW-1-158), the “Toxicology: liver, lung, pancreas” value was “The pancreas had areas of lymphocytic infiltrates extending from the periphery inwards between the acinar cells; also recorded: liver, lung, pancreas, spleen, heart and kidney all appeared within normal limits”. In the series on Male Long Evans rats, the “Mortality (25 mg/kg)” value is listed as 0/5, the “Response 25 mg/kg” value is 4/5, the “Mortality (200 mg/kg)” value is recorded as 0/5 and the “Response 200 mg/kg” value is given as 5/5.

Consider `O=C(O)c1nn(Cc2ccc(Cl)cc2Cl)c2cc(F)ccc12` [JWS-1-162, 1-(2,4-dichlorobenzyl)-6-fluoro-1H-indazole-3-carboxylic acid], for which, in series [1], the “Ames test (+)S9 0.1 mg/pl.” value is “Pass”, the “Ames test (+)S9 1 mg/pl.” value was “Pass”, the “Ames test (+)S9 10 mg/pl.” value was “Pass” and the “Ames test (−)S9 0.1 mg/pl.” value is recorded as “Pass”. In series [1], the “Ames test (−)S9 1 mg/pl.” value is recorded as “Pass” and the “Ames test (−)S9 10 mg/pl.” value is given as “Pass”. In addition, the “Toxicology: liver, lung, pancreas” value in the series with rats (25 mg/kg) was “liver, lung, pancreas, spleen, heart and kidney all appeared within normal limits”. Besides, the “Toxicology: liver, lung, pancreas” value with rats (200 mg/kg, listed as JSW-1-162) was “The lung had scattered hemorrhagic patches surrounding many of the small bronchioles; also recorded: The lung had moderate regions showing thickening of the alveolar walls, with a clear exudates slightly stained by eosin filling the alveoli”.

Source of the values: patent US8362031B2, “Lonidamine analogues and treatment of polycystic kidney disease” (University of Kansas, priority 2004, dated 2013).
